Assay results as given in ChEMBL document CHEMBL1201862, “PubChem BioAssay data set” (2004).
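The compound was tested at five concentrations on cells cultured in 96-well plates, with a 48-hour exposure period. Abbreviation: GI50, concentration required for 50% inhibition of growth.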 The source made the active and inactive calls. Rule as the data show it: active = GI50 up to about 1.1 µM and inactive = higher.

Key:
Assay in all cases: inhibition of tumour cell growth, NCI panel, 48 h
NCI-H226 = system: NCI-H226
SK-MEL-2 = system: SK-MEL-2
NCI/ADR-RES = system: NCI/ADR-RES
OVCAR-8 = system: OVCAR-8
PC-3 = system: PC-3
ACHN = system: ACHN
SNB-19 = system: SNB-19
HL-60 = system: HL-60
NCI-H460 = system: NCI-H460
KM12 = system: KM12
A498 = system: A498
EKVX = system: EKVX
Malme-3M = system: Malme-3M
OVCAR-3 = system: OVCAR-3
HOP-92 = system: HOP-92
SK-MEL-28 = system: SK-MEL-28
MDA-MB-231 = system: MDA-MB-231
HCT-15 = system: HCT-15
U-251 = system: U-251
HT-29 = system: HT-29
OVCAR-5 = system: OVCAR-5
Hs-578T = system: Hs-578T
UACC-62 = system: UACC-62
CCRF-CEM = system: CCRF-CEM
NCI-H522 = system: NCI-H522
COLO 205 = system: COLO 205
BT-549 = system: BT-549
A549 = system: A549
RPMI-8226 = system: RPMI-8226
OVCAR-4 = system: OVCAR-4
RXF 393 = system: RXF 393
HCT-116 = system: HCT-116
NCI-H23 = system: NCI-H23
SK-MEL-5 = system: SK-MEL-5
MCF7 = system: MCF7
DU-145 = system: DU-145
K562 = system: K562
M14 = system: M14
SF-268 = system: SF-268
SK-OV-3 = system: SK-OV-3
T47D = system: T47D
MOLT-4 = system: MOLT-4
SF-295 = system: SF-295
SN12C = system: SN12C
UACC-257 = system: UACC-257
HOP-62 = system: HOP-62
CAKI-1 = system: CAKI-1
TK-10 = system: TK-10
786-0 = system: 786-0
LOX IMVI = system: LOX IMVI
MDA-MB-435 = system: MDA-MB-435
SR = system: SR
UO-31 = system: UO-31
IGROV-1 = system: IGROV-1
SF-539 = system: SF-539
HCC 2998 = system: HCC 2998
SNB-75 = system: SNB-75
SW-620 = system: SW-620

O=c1[nH]nc(-c2ccccc2)n1/N=C/c1cccc([N+](=O)[O-])c1
GI50 (NCI-H226): > 100 µM (inactive) | GI50 (SK-MEL-2): > 100 µM (inactive) | GI50 (NCI/ADR-RES): 41.4 µM (inactive) | GI50 (OVCAR-8): 93.5 µM (inactive) | GI50 (PC-3): > 100 µM (inactive) | GI50 (ACHN): > 100 µM (inactive) | GI50 (SNB-19): 98.6 µM (inactive) | GI50 (HL-60): > 100 µM (inactive) | GI50 (NCI-H460): 91.6 µM (inactive) | GI50 (KM12): > 100 µM (inactive) | GI50 (A498): > 100 µM (inactive) | GI50 (EKVX): > 100 µM (inactive) | GI50 (Malme-3M): > 100 µM (inactive) | GI50 (OVCAR-3): > 100 µM (inactive) | GI50 (HOP-92): > 100 µM (inactive) | GI50 (SK-MEL-28): > 100 µM (inactive) | GI50 (MDA-MB-231): > 100 µM (inactive) | GI50 (HCT-15): > 100000 nM | GI50 (U-251): 41.5 µM (inactive) | GI50 (HT-29): > 100 µM (inactive) | GI50 (OVCAR-5): > 100 µM (inactive) | GI50 (Hs-578T): > 100 µM (inactive) | GI50 (UACC-62): > 100 µM (inactive) | GI50 (CCRF-CEM): > 100 µM (inactive) | GI50 (NCI-H522): 8.15 µM (inactive) | GI50 (COLO 205): > 100 µM (inactive) | GI50 (BT-549): > 100 µM (inactive) | GI50 (A549): > 100 µM (inactive) | GI50 (RPMI-8226): > 100 µM (inactive) | GI50 (OVCAR-4): > 100 µM (inactive) | GI50 (RXF 393): 49.8 µM (inactive) | GI50 (HCT-116): > 100 µM (inactive) | GI50 (NCI-H23): > 100 µM (inactive) | GI50 (SK-MEL-5): > 100 µM (inactive) | GI50 (MCF7): > 100 µM (inactive) | GI50 (DU-145): > 100 µM (inactive) | GI50 (K562): > 100 µM (inactive) | GI50 (M14): > 100 µM (inactive) | GI50 (SF-268): > 100 µM (inactive) | GI50 (SK-OV-3): 14.9 µM (inactive) | GI50 (T47D): > 100 µM (inactive) | GI50 (MOLT-4): > 100 µM (inactive) | GI50 (SF-295): 59.7 µM (inactive) | GI50 (SN12C): > 100 µM (inactive) | GI50 (UACC-257): > 100 µM (inactive) | GI50 (HOP-62): 28.7 µM (inactive) | GI50 (CAKI-1): > 100 µM (inactive) | GI50 (TK-10): > 100 µM (inactive) | GI50 (786-0): > 100 µM (inactive) | GI50 (LOX IMVI): > 100 µM (inactive) | GI50 (MDA-MB-435): > 100 µM (inactive) | GI50 (SR): 77.8 µM (inactive) | GI50 (UO-31): > 100 µM (inactive) | GI50 (IGROV-1): > 100 µM (inactive) | GI50 (SF-539): 30.1 µM (inactive) | GI50 (HCC 2998): > 100 µM (inactive) | GI50 (SNB-75): > 100 µM (inactive) | GI50 (SW-620): > 100 µM (inactive)

C[S+](C)CC(=O)c1ccc2c(c1)Sc1ccccc1O2
GI50 (NCI-H226): 5.16 µM (inactive) | GI50 (SK-MEL-2): 3.4 µM (inactive) | GI50 (NCI/ADR-RES): 6.55 µM (inactive) | GI50 (OVCAR-8): 3.39 µM (inactive) | GI50 (PC-3): 1.04 µM (active) | GI50 (ACHN): 5.78 µM (inactive) | GI50 (SNB-19): 5.51 µM (inactive) | GI50 (HL-60): 1.61 µM (inactive) | GI50 (NCI-H460): 5.3 µM (inactive) | GI50 (KM12): 0.955 µM (active) | GI50 (A498): 8.41 µM (inactive) | GI50 (EKVX): 3.44 µM (inactive) | GI50 (Malme-3M): 3.45 µM (inactive) | GI50 (OVCAR-3): 2.4 µM (inactive) | GI50 (HOP-92): 3.74 µM (inactive) | GI50 (SK-MEL-28): 7.89 µM (inactive) | GI50 (MDA-MB-231): 7.06 µM (inactive) | GI50 (HCT-15): 2470 nM | GI50 (U-251): 7.19 µM (inactive) | GI50 (HT-29): 1.17 µM (inactive) | GI50 (OVCAR-5): 5.87 µM (inactive) | GI50 (Hs-578T): 3.45 µM (inactive) | GI50 (UACC-62): 3.91 µM (inactive) | GI50 (CCRF-CEM): 5.27 µM (inactive) | GI50 (NCI-H522): 1.09 µM (active) | GI50 (COLO 205): 1.02 µM (active) | GI50 (BT-549): 2.18 µM (inactive) | GI50 (A549): 5.68 µM (inactive) | GI50 (RPMI-8226): 2.59 µM (inactive) | GI50 (OVCAR-4): 3.44 µM (inactive) | GI50 (RXF 393): 3.78 µM (inactive) | GI50 (HCT-116): 1.32 µM (inactive) | GI50 (NCI-H23): 3.49 µM (inactive) | GI50 (SK-MEL-5): 1.08 µM (active) | GI50 (MCF7): 1.7 µM (inactive) | GI50 (DU-145): 4.1 µM (inactive) | GI50 (K562): 3.21 µM (inactive) | GI50 (M14): 0.755 µM (active) | GI50 (SF-268): 5.43 µM (inactive) | GI50 (SK-OV-3): 6.04 µM (inactive) | GI50 (T47D): 9.57 µM (inactive) | GI50 (MOLT-4): 3.29 µM (inactive) | GI50 (SF-295): 5.25 µM (inactive) | GI50 (SN12C): 6.34 µM (inactive) | GI50 (UACC-257): 4.72 µM (inactive) | GI50 (HOP-62): 13.2 µM (inactive) | GI50 (CAKI-1): 4.39 µM (inactive) | GI50 (TK-10): 5.38 µM (inactive) | GI50 (786-0): 2.72 µM (inactive) | GI50 (LOX IMVI): 3.18 µM (inactive) | GI50 (MDA-MB-435): 0.923 µM (active) | GI50 (SR): 1.43 µM (inactive) | GI50 (UO-31): 3.08 µM (inactive) | GI50 (IGROV-1): 2.75 µM (inactive) | GI50 (SF-539): 0.69 µM (active) | GI50 (HCC 2998): 2.64 µM (inactive) | GI50 (SNB-75): 2.7 µM (inactive) | GI50 (SW-620): 2.33 µM (inactive)
